± gives the expanded uncertainty stated by the source.
Assay: xn = mol fraction of the nth substance listed
Details: for surface tension liquid-gas: Drop volume; for viscosity / mass density: 100 kPa, Liquid; for viscosity: Concentric cylinders viscometry; for mass density: Vibrating tube method

CCC1CCCCC1 [ethylcyclohexane] + CC(C)CC(C)(C)C
Details	mass density [kg/m3]	surface tension liquid-gas [mN/m]	viscosity [mPa·s]
293.15 K, x1 = 0.1	700.76 ± 0.19	19.51 ± 0.24	0.54 ± 0.087
293.15 K, x1 = 0.1999	–	19.99 ± 0.24	–
293.15 K, x1 = 0.2	709.8 ± 0.18	–	0.565 ± 0.091
293.15 K, x1 = 0.3	–	20.57 ± 0.24	–
293.15 K, x1 = 0.3003	719.07 ± 0.18	–	0.591 ± 0.095
293.15 K, x1 = 0.3997	728.38 ± 0.17	–	0.619 ± 0.099
293.15 K, x1 = 0.4	–	21.13 ± 0.24	–
293.15 K, x1 = 0.5	–	21.74 ± 0.24	–
293.15 K, x1 = 0.5002	737.96 ± 0.17	–	0.65 ± 0.1
293.15 K, x1 = 0.6001	–	22.44 ± 0.24	–
293.15 K, x1 = 0.6005	747.68 ± 0.16	–	0.684 ± 0.11
293.15 K, x1 = 0.7002	757.5 ± 0.16	–	0.719 ± 0.12
293.15 K, x1 = 0.7004	–	23.16 ± 0.24	–
293.15 K, x1 = 0.8001	–	24 ± 0.24	–
293.15 K, x1 = 0.8003	767.49 ± 0.15	–	0.758 ± 0.12
293.15 K, x1 = 0.8994	–	24.75 ± 0.24	–
293.15 K, x1 = 0.8997	777.58 ± 0.15	–	0.801 ± 0.13
293.15 K, x1 = 1	787.98 ± 0.15	25.47 ± 0.24	0.848 ± 0.14
298.15 K, x1 = 0.1	696.71 ± 0.19	18.91 ± 0.24	0.513 ± 0.082
298.15 K, x1 = 0.1999	–	19.38 ± 0.24	–
298.15 K, x1 = 0.2	705.71 ± 0.18	–	0.536 ± 0.086
298.15 K, x1 = 0.3	–	19.88 ± 0.24	–
298.15 K, x1 = 0.3003	715.02 ± 0.18	–	0.56 ± 0.09
298.15 K, x1 = 0.3997	724.34 ± 0.17	–	0.586 ± 0.094
298.15 K, x1 = 0.4	–	20.4 ± 0.24	–
298.15 K, x1 = 0.5	–	21.01 ± 0.24	–
298.15 K, x1 = 0.5002	733.9 ± 0.17	–	0.613 ± 0.098
298.15 K, x1 = 0.6001	–	21.67 ± 0.24	–
298.15 K, x1 = 0.6005	743.64 ± 0.16	–	0.644 ± 0.1
298.15 K, x1 = 0.7002	753.47 ± 0.16	–	0.677 ± 0.11
298.15 K, x1 = 0.7004	–	22.45 ± 0.24	–
298.15 K, x1 = 0.8001	–	23.23 ± 0.24	–
298.15 K, x1 = 0.8003	763.46 ± 0.16	–	0.712 ± 0.11
298.15 K, x1 = 0.8994	–	24 ± 0.24	–
298.15 K, x1 = 0.8997	773.57 ± 0.15	–	0.751 ± 0.12
298.15 K, x1 = 1	783.97 ± 0.15	24.76 ± 0.24	0.793 ± 0.13
303.15 K, x1 = 0.1	692.57 ± 0.19	18.49 ± 0.24	0.489 ± 0.078
303.15 K, x1 = 0.2	701.62 ± 0.18	18.96 ± 0.24	0.509 ± 0.082
303.15 K, x1 = 0.3003	710.92 ± 0.18	19.61 ± 0.24	0.531 ± 0.085
303.15 K, x1 = 0.3997	720.25 ± 0.17	19.97 ± 0.24	0.555 ± 0.089
303.15 K, x1 = 0.5002	729.84 ± 0.17	20.62 ± 0.24	0.581 ± 0.093
303.15 K, x1 = 0.6005	739.57 ± 0.16	21.24 ± 0.24	0.609 ± 0.098
303.15 K, x1 = 0.7002	749.4 ± 0.16	22.12 ± 0.24	0.638 ± 0.1
303.15 K, x1 = 0.8003	759.41 ± 0.16	22.89 ± 0.24	0.671 ± 0.11
303.15 K, x1 = 0.8997	769.52 ± 0.15	23.75 ± 0.24	0.706 ± 0.11
303.15 K, x1 = 1	779.93 ± 0.15	24.55 ± 0.24	0.745 ± 0.12
308.15 K, x1 = 0.1	688.43 ± 0.19	18 ± 0.23	0.466 ± 0.075
308.15 K, x1 = 0.1999	–	18.45 ± 0.23	–
308.15 K, x1 = 0.2	697.49 ± 0.18	–	0.485 ± 0.078
308.15 K, x1 = 0.3	–	18.91 ± 0.23	–
308.15 K, x1 = 0.3003	706.8 ± 0.18	–	0.505 ± 0.081
308.15 K, x1 = 0.3997	716.14 ± 0.17	–	0.527 ± 0.084
308.15 K, x1 = 0.4	–	19.39 ± 0.23	–
308.15 K, x1 = 0.5	–	19.98 ± 0.24	–
308.15 K, x1 = 0.5002	725.74 ± 0.17	–	0.55 ± 0.088
308.15 K, x1 = 0.6001	–	20.65 ± 0.24	–
308.15 K, x1 = 0.6005	735.47 ± 0.17	–	0.577 ± 0.092
308.15 K, x1 = 0.7002	745.32 ± 0.16	–	0.604 ± 0.097
308.15 K, x1 = 0.7004	–	21.4 ± 0.24	–
308.15 K, x1 = 0.8001	–	22.11 ± 0.24	–
308.15 K, x1 = 0.8003	755.35 ± 0.16	–	0.634 ± 0.1
308.15 K, x1 = 0.8994	–	22.94 ± 0.24	–
308.15 K, x1 = 0.8997	765.46 ± 0.15	–	0.666 ± 0.11
308.15 K, x1 = 1	775.88 ± 0.15	23.74 ± 0.24	0.702 ± 0.11
313.15 K, x1 = 0.1	–	–	0.446 ± 0.072
313.15 K, x1 = 0.1012	684.26 ± 0.19	–	–
313.15 K, x1 = 0.2	–	–	0.464 ± 0.074
313.15 K, x1 = 0.2003	693.35 ± 0.18	–	–
313.15 K, x1 = 0.3001	702.64 ± 0.18	–	–
313.15 K, x1 = 0.3003	–	–	0.482 ± 0.077
313.15 K, x1 = 0.3997	–	–	0.503 ± 0.081
313.15 K, x1 = 0.4019	712.01 ± 0.18	–	–
313.15 K, x1 = 0.5002	–	–	0.524 ± 0.084
313.15 K, x1 = 0.5008	721.61 ± 0.17	–	–
313.15 K, x1 = 0.6	731.36 ± 0.17	–	–
313.15 K, x1 = 0.6005	–	–	0.548 ± 0.088
313.15 K, x1 = 0.6998	741.23 ± 0.16	–	–
313.15 K, x1 = 0.7002	–	–	0.573 ± 0.092
313.15 K, x1 = 0.8	751.26 ± 0.16	–	–
313.15 K, x1 = 0.8003	–	–	0.601 ± 0.096
313.15 K, x1 = 0.8997	–	–	0.63 ± 0.1
313.15 K, x1 = 0.9	761.39 ± 0.16	–	–
313.15 K, x1 = 1	771.82 ± 0.15	–	0.663 ± 0.11
318.15 K, x1 = 0.1	–	–	0.429 ± 0.069
318.15 K, x1 = 0.1012	680.05 ± 0.19	–	–
318.15 K, x1 = 0.2	–	–	0.445 ± 0.071
318.15 K, x1 = 0.2003	689.16 ± 0.19	–	–
318.15 K, x1 = 0.3001	698.38 ± 0.18	–	–
318.15 K, x1 = 0.3003	–	–	0.461 ± 0.074
318.15 K, x1 = 0.3997	–	–	0.481 ± 0.077
318.15 K, x1 = 0.4019	707.8 ± 0.18	–	–
318.15 K, x1 = 0.5002	–	–	0.5 ± 0.08
318.15 K, x1 = 0.5008	717.38 ± 0.17	–	–
318.15 K, x1 = 0.6	727.09 ± 0.17	–	–
318.15 K, x1 = 0.6005	–	–	0.522 ± 0.084
318.15 K, x1 = 0.6998	737.02 ± 0.16	–	–
318.15 K, x1 = 0.7002	–	–	0.548 ± 0.088
318.15 K, x1 = 0.8	747.05 ± 0.16	–	–
318.15 K, x1 = 0.8003	–	–	0.573 ± 0.092
318.15 K, x1 = 0.8997	–	–	0.598 ± 0.096
318.15 K, x1 = 0.9	757.21 ± 0.16	–	–
318.15 K, x1 = 1	767.69 ± 0.15	–	0.628 ± 0.1
323.15 K, x1 = 0.1	–	–	0.412 ± 0.066
323.15 K, x1 = 0.1012	675.82 ± 0.19	–	–
323.15 K, x1 = 0.2	–	–	0.427 ± 0.068
323.15 K, x1 = 0.2003	684.95 ± 0.19	–	–
323.15 K, x1 = 0.3001	694.19 ± 0.18	–	–
323.15 K, x1 = 0.3003	–	–	0.442 ± 0.071
323.15 K, x1 = 0.3997	–	–	0.46 ± 0.074
323.15 K, x1 = 0.4019	703.63 ± 0.18	–	–
323.15 K, x1 = 0.5002	–	–	0.478 ± 0.077
323.15 K, x1 = 0.5008	713.22 ± 0.17	–	–
323.15 K, x1 = 0.6	722.95 ± 0.17	–	–
323.15 K, x1 = 0.6005	–	–	0.499 ± 0.08
323.15 K, x1 = 0.6998	732.88 ± 0.16	–	–
323.15 K, x1 = 0.7002	–	–	0.522 ± 0.084
323.15 K, x1 = 0.8	742.93 ± 0.16	–	–
323.15 K, x1 = 0.8003	–	–	0.546 ± 0.088
323.15 K, x1 = 0.8997	–	–	0.569 ± 0.091
323.15 K, x1 = 0.9	753.1 ± 0.16	–	–
323.15 K, x1 = 1	763.59 ± 0.15	–	0.597 ± 0.096
333.15 K, x1 = 0.1	–	–	0.383 ± 0.061
333.15 K, x1 = 0.1012	667.27 ± 0.19	–	–
333.15 K, x1 = 0.2	–	–	0.396 ± 0.064
333.15 K, x1 = 0.2003	676.43 ± 0.19	–	–
333.15 K, x1 = 0.3001	685.73 ± 0.18	–	–
333.15 K, x1 = 0.3003	–	–	0.409 ± 0.066
333.15 K, x1 = 0.3997	–	–	0.425 ± 0.068
333.15 K, x1 = 0.4019	695.2 ± 0.18	–	–
333.15 K, x1 = 0.5002	–	–	0.44 ± 0.071
333.15 K, x1 = 0.5008	704.82 ± 0.18	–	–
333.15 K, x1 = 0.6	714.58 ± 0.17	–	–
333.15 K, x1 = 0.6005	–	–	0.457 ± 0.073
333.15 K, x1 = 0.6998	724.55 ± 0.17	–	–
333.15 K, x1 = 0.7002	–	–	0.478 ± 0.077
333.15 K, x1 = 0.8	734.62 ± 0.16	–	–
333.15 K, x1 = 0.8003	–	–	0.498 ± 0.08
333.15 K, x1 = 0.8997	–	–	0.518 ± 0.083
333.15 K, x1 = 0.9	744.81 ± 0.16	–	–
333.15 K, x1 = 1	755.35 ± 0.15	–	0.541 ± 0.087
343.15 K, x1 = 0.1	–	–	0.358 ± 0.057
343.15 K, x1 = 0.1012	658.57 ± 0.2	–	–
343.15 K, x1 = 0.2	–	–	0.369 ± 0.059
343.15 K, x1 = 0.2003	667.78 ± 0.19	–	–
343.15 K, x1 = 0.3001	677.13 ± 0.19	–	–
343.15 K, x1 = 0.3003	–	–	0.38 ± 0.061
343.15 K, x1 = 0.3997	–	–	0.395 ± 0.063
343.15 K, x1 = 0.4019	686.64 ± 0.18	–	–
343.15 K, x1 = 0.5002	–	–	0.408 ± 0.065
343.15 K, x1 = 0.5008	696.31 ± 0.18	–	–
343.15 K, x1 = 0.6	706.12 ± 0.17	–	–
343.15 K, x1 = 0.6005	–	–	0.423 ± 0.068
343.15 K, x1 = 0.6998	716.12 ± 0.17	–	–
343.15 K, x1 = 0.7002	–	–	0.441 ± 0.071
343.15 K, x1 = 0.8	726.23 ± 0.17	–	–
343.15 K, x1 = 0.8003	–	–	0.458 ± 0.073
343.15 K, x1 = 0.8997	–	–	0.476 ± 0.076
343.15 K, x1 = 0.9	736.46 ± 0.16	–	–
343.15 K, x1 = 1	747.03 ± 0.16	–	0.496 ± 0.08
